Experimental data taken from US20090176701A1, “Anti-microbial agents that interact with the complement system” (priority 2005, published 2009).

Experiments:
Format in all cases: cell-based
[1] = test system: E. coli O18:K1:H7; assay: Bacterial killing assay in 10% blood; design: CFU / CFU (Range) / CFU 1 hour / CFU 3 hours / CFU 5 hours / CFU 3 hour: scale not given here; conditions: for activity against O18ac:K1:H7 E. coli strain in blood / CFU / CFU 1 hour / CFU 3 hours / CFU 5 hours / bacterial killing activity (effect on bacterial growth): 10% blood; for activity against O18ac:K1:H7 E. coli strain in blood: concentrations tested 10 nM to 3 μM, peptide #5 compared to peptide #3; for CFU 1 hour / CFU 3 hours / CFU 5 hours: Table 5, 3000 CFU; for CFU 1 hour: blood 3.4; for CFU 3 hours: blood 4.2; for CFU 5 hours: blood 5.1; for bacterial killing activity (effect on bacterial growth): FIGS. 1 and 2, TFPI 5 μM, cathepsin G 400 nM; for bacterial survival (outgrowth of bacterial colonies): FIG. 11d, E. coli O18ac:K1:H7 in diluted whole blood
Method: TFPI was incubated with α-thrombin, plasmin, elastase and cathepsin G in 10% blood and tested for bacterial killing activity against E. coli O18:K1:H7 as follows. Recombinant TFPI at 5 μM (unless indicated otherwise), was treated with plasmin (100 nM, lane 3) and α-thrombin (100 nM, lane 7; 1 μM, lane 8) (A), elastase (100 nM, lanes 3 and 4) (B), and cathepsin G (100 nM, lane 4; 1 μM, lanes 5, 6 and 7) (C) in a total volume of 180 μl. The reaction contained TFPI diluted in RPMI 1640 without phenol red, 25 mM Hepes, pH 7.5 (RPMI), 3000 CFU E. coli O18:K1:H7 in 40 μl PBS, and diluted enzyme in 20 μl RPMI. The volume was adjusted with RPMI. The samples were pre-incubated for 15-30 minutes before the addition of anti-coagulant-free fresh blood to a final volume of 200 μl. Controls were 10% blood in RPMI, TFPI at 1, 2 and 5 μM, and the enzymes alone at the respective concentrations. The samples were incubated for 4 hours at 37° C. with 5% CO2 in a humidified incubator and serial dilutions plated on Tryptase soy agar plates. The number of bacterial colonies was determined after overnight incubation at 37° C. All experimental conditions are run in duplicate. The data represent the average colony number.
The 18 μl aliquots were diluted to 10 μM TFPI with 445 μl RPMI 1640 without phenolred, 25 mM Hepes, pH 7.5 (RPMI) and assayed at a final concentration of 5 μM in 200 μl reactions containing 3000 CFU E. coli in 40 μl PBS, 10% non-coagulated blood, and adjusted to the final volume with RPMI. Negative controls were 10% blood in RPMI, TFPI at 5 μM and cathepsin G at 400 nM. Anti-coagulant free blood was freshly drawn and added to the reaction as the last component. The samples were manipulated as described above.
Peptides were designed to test for bacterial killing activity localized in the C-terminal domain of TFPI. Activity was measured against Gram negative (E coli O18:K1:H7. ATCC 700973) bacteria in the presence of 10% blood as described above. Controls were RPMI with 10% blood and 100 nM Tifacogin. The biological activity was determined from the reduction of bacterial colonies, as above.
The three peptides #1, #2, & #3 were diluted in H2O to 10 fold their final assay concentration and incubated with bacteria for 4 hours, at the final concentrations of 3 μM, 300 nM 100 nM and 10 nM. E. coli was used at 3000 CFU/200 μl. Surviving colony numbers were determined as described in Example 1. […] Full-length TFPI has no activity against Gram negative bacteria in these assays at the concentrations tested.
Time-dependency: Peptides were incubated with 3000 CFU E. coli O18:K1:H7 at the indicated final concentrations in the presence of 10% blood in three parallel 200 μl reactions as described above. RPMI with 10% blood was used as negative control. After incubation for 1, 3, or 5 hours samples were assayed for the effect on bacterial survival by plating serial dilutions onto agar plates. […] The effect of peptides on bacterial survival increases over the time-span studied.
In these experiments, variable concentrations of E. coli O18:K1:H7 (3×10^3, 3×10^4 or 3×10^5 CFU/200 μl) were challenged with either 3 μM or 100 nM peptide #3 in RPMI/10% blood, and incubated for 3 or 5 hours before dilution and plating. Briefly, the bacteria were diluted to the indicated CFU in 40 μl PBS, the reactions assembled at a final volume of 200 μl as above, and incubated at 37° C. Serial dilutions of the reactions were plated and the colony number determined after overnight incubation. […] At 5 hours no effect on the high CFU culture was discernable, indicating a titration of the killing activity and the high CFU culture exceeding the capacity.

[2] = test system: E. coli O18:K1:H7; assay: Bacterial killing assay without blood (growth medium); conditions: no blood; for CFU (Range): Table 4, growth medium 6.2
Method: Peptides #1, #3 and #4 were tested for their activity without blood on E. coli O18:K1:H7. The peptides were assayed at 3 μM. The same blood and TFPI controls were included as in Experiment I.

[3] = test system: E. coli O18:K1:H7; assay: Bacterial killing assay in serum or plasma (complement dependence); conditions: FIG. 8D; peptides serially diluted to 300 nM, and 30 nM in serum
[4] = test system: IL-6 secretion; assay: IL-6 induction assay in diluted whole blood in the presence of LPS; conditions: FIG. 11c; peptide and LPS dose-dependent
Method: The ability of TFPI to induce IL-6 secretion in the presence of LPS was tested using TFPI and TFPI analogs, including: (i) TFPI1-161, having just residues 1-161 of TFPI; (ii) TFPI with mutant K1; (iii) TFPI with mutant K2; (iv) TFPI with mutants K1 and K2.
When diluted, freshly drawn whole blood is incubated with LPS derived from the cell wall of Gram-negative bacteria, a cytokine cascade is induced within a few hours.
A peptide consisting of the 22 C-terminal amino acids of TFPI (i.e. SEQ ID NO:3) was tested in an IL-6 assay in the presence of LPS. […] Thus this peptide appears to be able to neutralize the endotoxin activity of LPS.

[5] = Table 1, peptide 300 nM, 3000 CFU/200 μl, 4 hours, blood control 5.1
[6] = Table 1, peptide 3 μM, 3000 CFU/200 μl, 4 hours, blood control 5.1
[7] = Table 4, in blood, peptide 3 μM, blood control 5.1

GFIQRISKGGLIKTKRKRKKQRVKIAYEEIFVKNM (homo sapiens) [Peptide #5, TFPI aas 242-276]
activity against O18ac:K1:H7 E. coli strain in blood ([1]; 4 hours): similar, but slightly reduced | CFU ([1]; Table 2, peptide 10 nM, blood control 3.5): 4.1 | CFU ([1]; Table 2, peptide 100 nM, blood control 3.5): 2.1

Heparin [reference compound]
CFU (Range) ([1]; Table 9, blood alone control with Heparin, 3 U/mL, no peptide): 5.4 (5.3-5.4)

LLGDFFRKSKEKIGKEFKRIVQRIKDFLRNLVPRTES [Peptide #4, reference compound]
CFU [1, 5]: 4.9 | CFU [1, 6]: 1.3 | CFU (Range) [1, 7]: 1.3 (1.3-1.4) | CFU 1 hour ([1]; 300 nM): 3.3 | CFU 3 hours ([1]; 300 nM): 3.9 | CFU 5 hours ([1]; 300 nM): 3.1 | CFU 1 hour ([1]; 3 μM): 3.1 | CFU 3 hours ([1]; 3 μM): 3.4 | CFU 5 hours ([1]; 3 μM): 1.2 | inhibition of bacteria in the absence of blood ([2]; 3000 nM): full inhibition of bacteria

NFQRKEKREVIYKVKTKIKAMR (homo sapiens) [Peptide #2, scrambled control peptide, aas 255-276 scramble, reference compound]
CFU [1, 5]: 5.3 | CFU [1, 6]: 5.4 | CFU 1 hour ([1]; 3 μM): 3.4 | CFU 3 hours ([1]; 3 μM): 4.3 | CFU 5 hours ([1]; 3 μM): 5.2 | bacterial killing activity in serum (rank) [3]: inactive

TFPI: all exogenous TFPI in the examples is the TFPI analog ala-TFPI (SEQ ID NO:2), tifacogin
activity against O18ac:K1:H7 E. coli strain in blood ([1]; 4 hours): no activity | bacterial killing activity (effect on bacterial growth) [1]: did not exhibit a similar activity | CFU ([1]; Table 1, TFPI control (100 nM Tifacogin), 3000 CFU/200 μl, 4 hours, blood control 5.1): 5.2 | CFU (Range) ([1]; Table 4, in blood, TFPI control): 5.2 | CFU (Range) ([2]; TFPI control): 6.2

TKRKRKKQRVKIAYEEIFVKNM (homo sapiens) [Peptide #1, TFPI aas 255-276, the 22 C-terminal amino acids of TFPI]
activity against O18ac:K1:H7 E. coli strain in blood ([1]; 4 hours): active | bacterial survival (outgrowth of bacterial colonies) ([1]; 300 nM of peptide): killed all bacteria | bacterial survival (outgrowth of bacterial colonies) [1]: dose-dependently reduced bacterial survival | CFU [1, 5]: 5.2 | CFU [1, 6]: 1.1 | CFU (Range) [1, 7]: 1.1 (0.4-1.2) | CFU 1 hour ([1]; 300 nM): 3.4 | CFU 3 hours ([1]; 300 nM): 4.2 | CFU 5 hours ([1]; 300 nM): 4.2 | CFU 1 hour ([1]; 3 μM): 3.4 | CFU 3 hours ([1]; 3 μM): 1.2 | CFU 5 hours ([1]; 3 μM): 0.2 | CFU (Range) ([1]; Table 9, peptide 3 μm, Heparin, 3 U/mL): 5.5 | CFU (Range) ([1]; Table 9, peptide 3 μm, LMW heparin, 0.3 U/mL): 4.7 (4.5-5.1) | CFU (Range) ([1]; Table 9, peptide 3 μm, LMW heparin, 3 U/mL): 5.3 | CFU (Range) ([1]; Table 9, peptide 3 μm, no heparin, blood alone 4.9): 1.2 (N.D.-1.4) | bacterial killing activity with un-fractionated heparin ([1]; peptide 3 μm, un-fractionated heparin at 0.3 U/ml, data not shown): partial loss of bacterial killing activity | bacterial killing activity in serum (rank) [3]: greatly reduced activity | CFU (Range) ([2]; peptide 3 μM): 5.6 | effect of LPS on cytokine production (IL-6) [4]: completely reversed the effect of LPS on cytokine production

B1: Cathepsin G: protease used to digest TFPI, tested alone as negative control at 400 nM (protein, UniProt P08311 21-244, looked up)
Cathepsin G: IIGGRESRPHSRPYMAYLQIQSPAGQSRCGGFLVREDFVLTAAHCWGSNINVTLGAHNIQRRENTQQHITARRAIRHPQYNQRTIQNDIMLLQLSRRVRRNRNVNPVALPRAQEGLRPGTLCTVAGWGRVSMRRGTDTLREVQLRVQRDRQCLRIFGSYDPRRQICVGDRRERKAAFKGDSGGPLLCNNVAHGIVSYGKSSGVPPEVFTRVSSFLPWIRTTMRS
bacterial killing activity (effect on bacterial growth) [1]: did not exhibit a similar activity
